Experimental data: patent publication US9840498B2, “Substituted quinazolin-4-one derivatives” (NOVARTIS AG, priority 2013, dated 2017)

Assays:
[1] = biological target: human phosphoinositide-3 kinase (PI3K) alpha (Homo sapiens (Human), UniProt P42336); assay: PI3K-mediated Akt 1/2 (S473) phosphorylation in Rat-1 cells overexpressing PI3K alpha; type: cell-based, rat cells expressing human PI3K alpha; conditions: cellular assay, p-AKT(Ser473), read-out: Cell PI3K alpha IC50
Experimental: (§1) 2.1 Phosphoinositide-3 kinase (PI3K)-Mediated Akt 1/2 (S473) Phosphorylation in Rat-1 Cells
(§2) Rat-1 cells stably overexpressing a myristoylated form of the catalytic subunit of human phosphoinositide-3 kinase (PI3K) alpha, beta or delta were plated in 384-well plates at a density of 7500 (PI3K alpha), 6200 (PI3K beta), or 4000 (PI3K delta) cells in 30 ul complete growth medium (Dulbecco's modified Eagle's medium (DMEM high glucose) supplemented with 10% (v/v) fetal bovine serum, 1% (v/v) MEM non essential amino acids, 10 mM HEPES, 2 mM L-glutamine, 10 μg/mL puromycin and 1% (v/v) Penicillin/Streptomycin) and were incubated at […]/5% CO2/95% humidity for 24 h. Compounds were diluted in 384-well compound plates (compound master plates), to obtain 8-point serial dilutions for 40 test compounds in 90% DMSO, as well as 4 reference compounds plus 16 high controls and 16 low (inhibited) controls. Predilution plates were prepared by dispensing pipetting 250 nl of compound solutions into 384-well polypropylen plates (daugther plates), using a Hummingwell nanoliter dispenser. Compounds were prediluted by the addition of 49.75 ul complete growth medium. 10 ul of prediluted compound solution were transferred to the cell plate using a 384-well pipettor, resulting in a final DMSO concentration of 0.11%. Cells were incubated for 1 h at […]/5% CO2/95% humidity. The supernatant was removed, the cells were lysed in 20 ul of lysis buffer for AlphaScreen® SureFire® detection.
(§3) For detection of p-AKT(Ser473), the SureFire® p-Akt 1/2 (Ser473) Assay Kit (PerkinElmer, U.S.A.) was used. 5 ul of cell lysate was transferred to 384-well low volume Proxiplates for detection using a 384-well pipettor. Addition of AlphaScreen® SureFire® reagents was done according to the manufacturer's protocol. First, 5 ul of reaction buffer plus activation buffer mix containing AlphaScreen® acceptor beads was added, the plate was sealed, and incubated on a plate shaker for 2 hours at room temperature. Second, 2 ul of dilution buffer containing AlphaScreen® donor beads was added, and the plate was incubated on plate shaker as above for a further 2 hours. The plate was read on an AlphaScreen® compatible plate reader, using standard AlphaScreen® settings. Alternatively, p-AKT(Ser473) was detected with the CisBio HTRF Assay Kit: As positive control, 0.9 mM of 1-(3-(trifluoromethyl)-4-(piperazin-1-yl)phenyl)-8-(6-methoxypyridin-3-yl)-3-methyl-1H-imidazo[4,5-c]quinolin-2(3H)-one maleic acid salt in 90% (v/v) DMSO was added to the compound master plate. For compound testing, the cells were seeded at a density of 4000 (Rat-1_PI3Kdelta), 8000 (Rat-1_PI3Kalpha), or 6500 (Rat-1_PI3Kbeta) cells in 30 ul complete growth medium into 384-well plates, with a plastic surface promoting the adhesion of cells and their growth (assay plates) and were grown at 37° C./5% CO2/90% humidity for 24 h. Some 10 ul of the compound predilutions from the daughter plate were then transferred to the cells. After treatment with compound for 1 h, medium was removed and cells were lysed by the addition of 20 ul lysis buffer supplemented with blocking buffer. Detection of p-AKT(Ser473) was performed with the HTRF pAKT (Ser473) assay kit according to the manufacturer's instructions using 16 ul of cell lysate in a total detection volume of 20 ul.

[2] = biological target: human phosphoinositide-3 kinase (PI3K) delta (Homo sapiens (Human), UniProt O00329); assay: PI3K-mediated Akt 1/2 (S473) phosphorylation in Rat-1 cells overexpressing PI3K delta; type: cell-based; conditions: cellular assay, p-AKT(Ser473), read-out: Cell PI3K delta IC50
Chain of human phosphoinositide-3 kinase (PI3K) delta (O00329 whole entry): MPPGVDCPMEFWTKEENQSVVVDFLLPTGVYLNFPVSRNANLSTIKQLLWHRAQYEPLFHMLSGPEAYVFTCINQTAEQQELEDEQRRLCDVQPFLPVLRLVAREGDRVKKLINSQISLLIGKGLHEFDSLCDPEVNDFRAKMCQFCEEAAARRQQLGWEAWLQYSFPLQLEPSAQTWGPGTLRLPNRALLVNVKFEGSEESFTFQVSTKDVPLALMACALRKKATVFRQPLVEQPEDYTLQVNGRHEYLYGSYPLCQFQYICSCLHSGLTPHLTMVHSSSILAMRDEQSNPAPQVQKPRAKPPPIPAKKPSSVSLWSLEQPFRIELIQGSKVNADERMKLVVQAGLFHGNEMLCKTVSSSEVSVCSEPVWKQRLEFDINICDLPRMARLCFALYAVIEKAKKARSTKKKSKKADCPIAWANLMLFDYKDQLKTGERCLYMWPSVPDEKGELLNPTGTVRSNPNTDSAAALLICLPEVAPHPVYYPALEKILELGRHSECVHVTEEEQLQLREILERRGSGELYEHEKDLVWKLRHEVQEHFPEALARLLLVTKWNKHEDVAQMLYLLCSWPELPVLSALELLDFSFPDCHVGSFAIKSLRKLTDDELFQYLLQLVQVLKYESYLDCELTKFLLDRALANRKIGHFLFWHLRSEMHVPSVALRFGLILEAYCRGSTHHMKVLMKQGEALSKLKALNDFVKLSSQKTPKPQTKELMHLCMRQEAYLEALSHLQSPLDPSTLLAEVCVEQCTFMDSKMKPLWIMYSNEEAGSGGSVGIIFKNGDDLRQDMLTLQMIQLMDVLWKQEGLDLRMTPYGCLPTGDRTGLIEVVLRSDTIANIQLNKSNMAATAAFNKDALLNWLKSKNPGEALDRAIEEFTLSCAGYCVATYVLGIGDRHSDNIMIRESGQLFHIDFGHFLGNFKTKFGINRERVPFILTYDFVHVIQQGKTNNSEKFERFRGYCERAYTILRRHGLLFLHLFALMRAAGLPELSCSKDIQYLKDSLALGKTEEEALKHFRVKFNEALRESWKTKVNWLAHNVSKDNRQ
Chain of human phosphoinositide-3 kinase (PI3K) delta (Q63787 whole entry partner): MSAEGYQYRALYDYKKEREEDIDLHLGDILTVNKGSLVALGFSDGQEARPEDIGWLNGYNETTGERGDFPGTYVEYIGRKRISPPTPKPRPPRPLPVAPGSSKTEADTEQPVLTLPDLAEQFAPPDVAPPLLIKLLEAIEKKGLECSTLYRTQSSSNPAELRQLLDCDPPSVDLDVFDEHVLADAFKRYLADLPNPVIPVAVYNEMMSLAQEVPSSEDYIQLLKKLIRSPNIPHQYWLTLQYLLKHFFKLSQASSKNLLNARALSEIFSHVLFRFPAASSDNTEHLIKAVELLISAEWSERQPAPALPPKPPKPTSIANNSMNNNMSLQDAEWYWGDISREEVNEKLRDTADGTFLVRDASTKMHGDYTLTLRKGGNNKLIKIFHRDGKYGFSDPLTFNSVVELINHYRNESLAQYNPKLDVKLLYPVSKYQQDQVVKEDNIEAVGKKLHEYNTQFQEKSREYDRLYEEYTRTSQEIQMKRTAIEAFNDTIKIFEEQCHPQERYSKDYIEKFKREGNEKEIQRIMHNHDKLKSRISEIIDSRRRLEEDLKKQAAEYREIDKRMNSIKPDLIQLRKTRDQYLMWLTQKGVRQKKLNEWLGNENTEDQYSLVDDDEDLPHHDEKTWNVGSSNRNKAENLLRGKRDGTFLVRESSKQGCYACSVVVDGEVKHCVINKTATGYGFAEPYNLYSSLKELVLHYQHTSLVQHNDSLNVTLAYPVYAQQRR
Experimental: as §1, §2, §3

PI 3-Kinase Gamma = PI 3-Kinase Gamma (Homo sapiens (Human), UniProt P48736); assay: Cellular U937 AKT assay for PI 3-kinase gamma; type: cell-based; conditions: U937 cells, MIP1α-stimulated AKT phosphorylation, read-out: Cell PI3K gamma IC50
Chain of PI 3-Kinase Gamma (P48736 whole entry): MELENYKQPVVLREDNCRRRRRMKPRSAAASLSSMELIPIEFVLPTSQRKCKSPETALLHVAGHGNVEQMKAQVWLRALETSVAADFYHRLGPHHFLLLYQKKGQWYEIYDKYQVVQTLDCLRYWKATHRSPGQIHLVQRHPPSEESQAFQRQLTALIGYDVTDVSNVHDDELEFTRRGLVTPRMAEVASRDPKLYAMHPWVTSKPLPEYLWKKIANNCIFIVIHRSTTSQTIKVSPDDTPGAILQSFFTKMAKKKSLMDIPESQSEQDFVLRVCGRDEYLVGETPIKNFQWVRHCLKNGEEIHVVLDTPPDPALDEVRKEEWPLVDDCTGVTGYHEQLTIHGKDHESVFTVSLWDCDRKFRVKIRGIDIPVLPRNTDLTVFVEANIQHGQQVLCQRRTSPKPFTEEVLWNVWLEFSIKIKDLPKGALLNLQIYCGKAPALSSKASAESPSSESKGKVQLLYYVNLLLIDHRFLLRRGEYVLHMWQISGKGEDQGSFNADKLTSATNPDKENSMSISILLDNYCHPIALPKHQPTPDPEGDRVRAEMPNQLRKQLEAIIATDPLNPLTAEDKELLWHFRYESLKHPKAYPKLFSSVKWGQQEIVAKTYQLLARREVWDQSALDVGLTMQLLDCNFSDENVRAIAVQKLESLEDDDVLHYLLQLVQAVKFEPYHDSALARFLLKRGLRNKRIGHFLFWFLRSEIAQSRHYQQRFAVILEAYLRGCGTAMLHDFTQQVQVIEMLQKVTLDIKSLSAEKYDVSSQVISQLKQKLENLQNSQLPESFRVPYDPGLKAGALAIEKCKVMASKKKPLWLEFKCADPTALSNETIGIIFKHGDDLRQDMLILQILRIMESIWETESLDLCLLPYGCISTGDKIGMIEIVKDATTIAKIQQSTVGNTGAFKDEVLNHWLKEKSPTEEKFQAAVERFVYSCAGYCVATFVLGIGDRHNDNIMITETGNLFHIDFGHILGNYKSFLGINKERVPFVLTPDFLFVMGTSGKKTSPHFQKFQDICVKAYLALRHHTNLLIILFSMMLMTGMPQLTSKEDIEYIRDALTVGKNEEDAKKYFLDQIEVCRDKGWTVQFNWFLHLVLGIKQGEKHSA
Experimental: The U937 monocyte cell line is maintained in a basal medium of RPMI 1640 supplemented with 10% heat inactivated FCS, 100 U/ml Penicillin, 100 ug/ml streptomycin and 2 mM L-glutamine (Invitrogen). U937 suspension culture is maintained by seeding cells at a density of 0.125×10^6 cells per ml in fresh medium every three or four days. Cells are incubated at 37° C., 5% CO2. […] Before beginning the cell manipulations described below, the MSD (Meso Scale Discovery) assay plate is blocked by addition of 150 ul/well blocking buffer supplied and incubated with shaking for a minimum of one hour at room temperature. All steps of the assay must be performed quickly, with accurately timed incubation periods and observing temperature controls where indicated. […] Falcon tube, counted and centrifuged for eight minutes at 300 g at room temperature. Supernatant is aspirated, the cell pellet resuspended and washed once in HBSS (Hank's Balanced Salt Solution) by centrifugation for eight minutes at 300 g at room temperature. The cell pellet is resuspended in HBSS to a concentration of 4×10^6 per ml, and 100 μL of cell suspension added to each well of a flat-bottomed 96-well tissue culture plate. Assay plates are incubated for 1.5 hours at 37° C., 5% CO2 to allow background AKT phosphorylation to reduce before the compound stimulation step. […] Compound concentrations at this stage are 4-times the final concentration required in the assay plate. Cells are stimulated with compound or HBSS 0.8% DMSO by direct transfer of 50 ul/well from the compound dilution plate. The assay plate containing compound-treated cells is then incubated for 30 minutes at 37° C. A standard plate layout is used for all experiments. Compound-treated cells, in addition to positive control wells (“max MIP1α”), are stimulated with 50 μL per well of 40 ng/ml MIP1α (R&D Systems catalogue number 270-LD, lyophilized stock reconstituted to 50 μg/ml with PBS 0.1% BSA). Negative control wells (“min HBSS”), are stimulated with 50 μl/well of HBSS in the absence of MIP1α. […] Cells are incubated with MIP1α for 3 minutes, at 37° C., 5% CO2. After the three minute stimulation period, the assay plate is kept ice cold at all times. Assay plates are centrifuged for 2 minutes at 300 g, 4° C. and supernatant is removed by gently inverting, and then blotting the plate on tissue. Cells are then washed by gentle addition of 150 μL/well of ice cold HBSS and centrifugation at 300 g, for 5 minutes at 4° C. Supernatant is aspirated and the plate blotted as described above. The plate is placed on ice and cells are immediately treated with 35 μL per well of ice cold lysis buffer, prepared according to the kit instructions (per assay plate, to 5 ml of Tris lysis buffer add 100 μl of 50× protease inhibitor solution and 50 μl of each 100× phosphatase inhibitor solutions I and II). Plates are incubated on ice for 20 minutes before centrifugation at 841 g for 5 minutes, 4° C. Block buffer is aspirated from the MSD plate, and the plate washed four times with 300 μl/well Tris wash buffer. 25 μL of cell lysate is then transferred from the assay plate to the washed MSD plate which is sealed and incubated at room temperature for one hour with shaking. The plate is washed four times with 300 μL per well of Tris wash buffer before addition of 25 μL per well of sulfo-tag anti-total AKT/pAKT detection antibody (60 μl of 50× antibody stock is diluted in 1 ml block buffer mixed with 2 ml wash buffer) and incubated at room temperature for one hour with shaking. The plate is washed four times with 300 μl per well of Tris wash buffer and 150 μl per well of Read buffer is added, taking care to avoid the introduction of bubbles. The plate is immediately read using an MSD SECTOR Imager 6000. Results are exported in Excel and the percentage of phosphorylated AKT is calculated using the equation: % Phosphoprotein=((2*Phospho signal)/(Phospho signal+Total signal))*100. […]

Chain of human phosphoinositide-3 kinase (PI3K) alpha (P42336 whole entry): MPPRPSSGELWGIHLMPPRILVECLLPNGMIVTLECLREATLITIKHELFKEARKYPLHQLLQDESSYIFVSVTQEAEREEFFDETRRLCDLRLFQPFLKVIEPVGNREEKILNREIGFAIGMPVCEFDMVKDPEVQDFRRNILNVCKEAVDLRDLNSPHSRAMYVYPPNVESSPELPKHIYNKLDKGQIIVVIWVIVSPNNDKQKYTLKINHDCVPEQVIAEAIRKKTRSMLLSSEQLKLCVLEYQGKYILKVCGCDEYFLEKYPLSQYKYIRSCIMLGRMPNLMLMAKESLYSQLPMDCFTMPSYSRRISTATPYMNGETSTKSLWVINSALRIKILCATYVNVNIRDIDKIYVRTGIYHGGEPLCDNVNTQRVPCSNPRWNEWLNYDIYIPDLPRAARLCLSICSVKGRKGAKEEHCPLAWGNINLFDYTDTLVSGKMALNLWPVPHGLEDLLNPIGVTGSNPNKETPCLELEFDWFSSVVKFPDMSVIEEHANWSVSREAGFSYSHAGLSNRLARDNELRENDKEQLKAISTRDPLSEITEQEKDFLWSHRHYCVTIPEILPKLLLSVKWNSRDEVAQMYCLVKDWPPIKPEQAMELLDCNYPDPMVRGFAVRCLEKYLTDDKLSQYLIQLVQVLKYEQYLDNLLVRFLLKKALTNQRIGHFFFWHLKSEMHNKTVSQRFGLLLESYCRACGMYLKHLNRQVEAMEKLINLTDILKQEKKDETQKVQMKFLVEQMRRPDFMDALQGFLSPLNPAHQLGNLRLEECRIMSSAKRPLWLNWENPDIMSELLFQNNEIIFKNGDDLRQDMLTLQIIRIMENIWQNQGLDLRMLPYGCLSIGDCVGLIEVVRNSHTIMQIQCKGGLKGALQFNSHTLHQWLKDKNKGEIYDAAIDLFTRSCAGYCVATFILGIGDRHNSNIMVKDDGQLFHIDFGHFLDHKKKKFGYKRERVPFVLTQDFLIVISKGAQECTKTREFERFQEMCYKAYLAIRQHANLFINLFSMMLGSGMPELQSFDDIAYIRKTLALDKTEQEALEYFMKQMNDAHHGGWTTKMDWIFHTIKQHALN
Chain of human phosphoinositide-3 kinase (PI3K) alpha (Q63787 whole entry partner): as the sequence (Q63787 whole entry partner) above

- IC50 [1]: > 10000 nM
- IC50 [2]: 13 nM
- IC50 (PI 3-Kinase Gamma): 11 nM
SMILES: Cc1ncc(-c2cccc3nc([C@@H]4C[C@H](O)CN4c4nc(N)nc(C)c4C#N)n(-c4ccccc4)c(=O)c23)cn1 [Example 23, 2-Amino-4-((2S,4S)-4-hydroxy-2-(5-(2-methylpyrimidin-5-yl)-4-oxo-3-phenyl-3,4-dihydroquinazolin-2-yl)pyrrolidin-1-yl)-6-methylpyrimidine-5-carbonitrile]
